Experimental findings from US20240002379A1, “ASYMMETRIC CONJUGATE COMPOUNDS” (Pheon Therapeutics Ltd., priority 2016, published 2024) are described below.

For one test, the system named is SW48 cell line (gastric). The test can be described thus: MTT cytotoxicity assay, SW48. It is filed as cell-based. The note with it: Homo sapiens, SW48; MTT assay, 72 hour incubation; read-out: Cytotoxicity SW48 (72 hrs). A digest of the protocol: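 Cells seeded at 1800/well in RPMI1640 + 10% FBS, adhered overnight, then exposed to compound 72 h at 37° C. Survival by MTT (500 μg/ml, 4 h), formazan in DMSO read at 540 nm, blank-corrected versus untreated wells; IC50 read from concentration–survival plot.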
A general note: Tetrazolium assays rely on reduction of a dye to a coloured formazan, in cell work by metabolically active cells.

The subject of test [1] is fluorescently labelled DNA duplex 5′-[…]-3′. Kind of test: FRET DNA melting, FIG. 17 middle sequence. It is filed as binding. To be noted: suggests interstrand cross-link formation. The source says: Further FRET DNA melting studies were undertaken on a number of molecules using three fluorescently labelled sequences. The sequences (FIG. 17) were designed to provide additional evidence that the series can form inter- and intrastrand cross-links. Inosines were inserted in place of traditional DNA bases in some cases to limit the number of binding sites available for the compounds to interact with. The short duplexes used in this FRET study are relatively unstable in the duplex form with a melting temperature below 30° C. so that, in the absence of ligand, a large part of the melting occurs below the starting temperature of the experiment. […] Increasing concentrations of 13 cause a greater amount of the melting transition to appear at the higher temperature (i.e. a greater number of the DNA molecules are cross-linked). […]
The reaction mixture was comprised of 4 μL of 250 mM phosphate buffer (final concentration of 50 mM), 4 μL flourophor and 4 μL quencher molecule of the appropriate oligonucleotide for a final concentration of 0.2 PM, 4 μL 5 M sodium chloride (final concentration of 1 M NaCl), and 4 μL of distilled H2O. […] This mixture was analysed without prior annealing.
Fluorescence melting profiles were measured using a Roche LightCycler using a total reaction volume of 20 μL. […] Annealing steps and melting steps were all recorded and changes in fluorescence were measured at 520 nm. […]

With `COc1cc2c(cc1OCCCC(=O)N1C[C@@H](CCl)c3c1cc(O)c1ccccc31)N=C[C@@H]1CCCCN1C2=O` [Compound 13, (S)-3-(4-((S)-1-(Chloromethyl)-5-hydroxy-1,2-dihydro-3H-benzo[e]indol-3-yl)-4-oxobutoxy)-2-methoxy-7,8,9,10-tetrahydrobenzo[e]-pyrido[1,2-a][1,4]diazepin-12(6aH)-one], the IC50 in the test with SW48 cell line (gastric) is 0.28 nM.
As for `COc1cc2c(cc1OCc1cccc(CC(=O)N3C[C@@H](CCl)c4c3cc(O)c3ccccc43)c1)N=C[C@@H]1CCCCN1C2=O` [Compound 42, (S)-3-((3-(2-((S)-1-(Chloromethyl)-5-hydroxy-1,2-dihydro-3H-benzo[e]indol-3-yl)-2-oxoethyl)benzyl)oxy)-2-methoxy-7,8,9,10-tetrahydrobenzo[e]pyrido[1,2-a][1,4]diazepin-12(6aH)-one], the Tm value in test [1] is approximately 80 °C.
